The values below come from publication PMC10771296, “Plectasin: from evolution to truncation, expression, and better druggability” (Frontiers in Microbiology, 2023).

One data set deals with E. coli O157. The following applies: ref Yang et al., 2019; cited from earlier work. From the text:
(§1) Table 3 The MIC values of Ple-AB. | column: MIC (μg/mL) / Plectasin

In the next data set the test system is P. aeruginsoa CICC21630. As to conditions: ref Yang et al., 2019; cited from earlier work.
Description: as §1

Data set [1] relates to S. aureus ATCC43300. As to conditions: ref Yang et al., 2019; cited from earlier work.
Description: as §1

The next data set relates to S. aureus CVCC546. As to conditions: ref Yang et al., 2019; cited from earlier work.
Description: as §1

In the next data set the test system is S. aureus E48. As to conditions: ref Yang et al., 2019; cited from earlier work.
Description: as §1

Another data set relates to mouse erythrocytes. The following applies: 256 μg/mL; ref Zhang et al., 2011; Yang et al., 2019; cited from earlier work. From the text: The length, positive charge number, and amphiphilicity of the derived peptide Ple-AB were altered, reducing the peptide chain length from 40 to 36 amino acids, reducing the molecular weight from 4407.99 to 4006.66 Da, increasing the charge number from +1 to +3, and increasing the hydrophobicity from −0.695 to −0.469 (Table 1).

Data set [2] has as its system S. aureus ATCC43300. The following applies: ref Lei et al., 2018; cited from earlier work. An excerpt: Clinical applications require drugs that exhibi ...
The subject of data set [3] is S. aureus ATCC43300. The data set can be described thus: MIC/MBC, micro broth dilution. The format is cell-based, Staphylococcus aureus. The following applies: Staphylococcus aureus, ATCC43300; micro broth dilution, 1 × 10^5 CFU/mL, repeated thrice; read-out: MIC. Here is the method:
The minimum inhibitory concentration (MIC) of the peptides was assayed using the micro broth dilution method, which is an important indicator of the antibacterial activity of the AMPs ([Liu et al., 2021]). […] The MIC was defined as the lowest concentration of ones at which no visible bacterial growth was observed. All the assays were repeated thrice.

For data set [4], the system named is S. aureus ATCC43300. The data set can be described thus: Time-kill curve (bacterial kinetics in vitro). The format is cell-based, Staphylococcus aureus. The following applies: 2× MIC, 1 × 10^5 CFU/mL, 37°C, 250 rpm, colony counting. As to the method: The bactericidal efficiency of Ple-AB was evaluated by plotting a time-kill curve ([Zheng et al., 2021]). Single colonies of the S. aureus ATCC43300 were picked for overnight activation, and 1% were transferred and incubated at 37°C until the logarithmic growth phase. […] Samples of 100 uL of bacteria were taken at 0, 0.5, 1, 2, 4, 6, 8, 10, 12, and 24 h, diluted, and coated to count the number of single colonies and plot the time-killing curve.

The MIC is the least concentration at which growth counts as inhibited.

Converted amounts (≈) assume the structure as drawn. Read-outs that look alike come from different tables or passages of the source. Marks after values point to notes of the source that are not given here.

In the case of `CC[C@H](C)[C@@H]1NC(=O)[C@H](CO)NC(=O)[C@H](CCCCN)NC(=O)[C@@H]2CSSC[C@@H](C(=O)N[C@@H](Cc3ccc(O)cc3)C(=O)O)NC(=O)[C@H](CCCCN)NC(=O)[C@@H]3CSSC[C@H](NC(=O)[C@H](CCC(N)=O)NC(=O)[C@H](CCSC)NC(=O)[C@H](CC(=O)O)NC(=O)[C@H](CC(=O)O)NC(=O)[C@H](CCC(=O)O)NC(=O)[C@H](CC(=O)O)NC(=O)[C@H](Cc4c[nH]c5ccccc45)NC(=O)[C@@H]4CCCN4C(=O)CNC(=O)[C@H](CC(N)=O)NC(=O)[C@@H](NC(=O)CNC(=O)[C@H](Cc4ccccc4)NC(=O)CN)CSSC[C@H](NC(=O)[C@H](Cc4ccc(O)cc4)NC(=O)CNC(=O)CNC(=O)[C@H](CCCCN)NC(=O)[C@H](Cc4ccc(O)cc4)NC(=O)CNC(=O)[C@H](CCCCN)NC1=O)C(=O)N[C@@H](C)C(=O)N[C@@H](CCCCN)C(=O)NCC(=O)NCC(=O)N[C@@H](Cc1ccccc1)C(=O)N[C@@H](C(C)C)C(=O)N3)C(=O)N[C@@H](Cc1c[nH]cn1)C(=O)N[C@@H](CC(N)=O)C(=O)N[C@@H](Cc1c[nH]cn1)C(=O)N2` [Plectasin], the MIC with E. coli O157 was >128 ^a μg/mL; in the data set on P. aeruginsoa CICC21630 it was >128 ^a μg/mL; in the data set on S. aureus ATCC43300 [1] it was 4^a μg/mL; in the data set with S. aureus CVCC546, 16^a μg/mL; in the data set on S. aureus E48, 4^a μg/mL. In the data set with mouse erythrocytes, the Hemolytic activity is given as 68%. The “Time of co-incubation with simulated intestinal fluid after which activity is lost” value in the data set with S. aureus ATCC43300 [2] was 15 to 30 min.
For `CN[C@H](CC(C)C)C(=O)N[C@H]1C(=O)N[C@@H](CC(N)=O)C(=O)N[C@H]2C(=O)N[C@H]3C(=O)N[C@H](C(=O)N[C@H](C(=O)O)c4cc(O)cc(O)c4-c4cc3ccc4O)[C@H](O)c3ccc(c(Cl)c3)Oc3cc2cc(c3O[C@@H]2O[C@H](CO)[C@@H](O)[C@H](O)[C@H]2O[C@H]2C[C@](C)(N)[C@H](O)[C@H](C)O2)Oc2ccc(cc2Cl)[C@H]1O` [vancomycin, reference compound], in the data set on S. aureus ATCC43300 [3], the MIC came out at 1 µg/mL (≈ 0.69 µM). In the data set on S. aureus ATCC43300 [4], the “Time to kill all the strains” value stood at 6 h.
